In PMC11424024 (Methods in enzymology, 2024):

What was measured:
[1] = molecular target: Rv0097 (Mycobacterium tuberculosis, UniProt P9WG83)
[2] = molecular target: ScoE (Streptomyces coeruleorubidus, UniProt A0A3B6UEU3); assay: LC-HRMS; format: biochemical; conditions: α-KG, Fe(II); no INBA formed, only a trace of 2

Chain of Rv0097 (P9WG83 whole entry): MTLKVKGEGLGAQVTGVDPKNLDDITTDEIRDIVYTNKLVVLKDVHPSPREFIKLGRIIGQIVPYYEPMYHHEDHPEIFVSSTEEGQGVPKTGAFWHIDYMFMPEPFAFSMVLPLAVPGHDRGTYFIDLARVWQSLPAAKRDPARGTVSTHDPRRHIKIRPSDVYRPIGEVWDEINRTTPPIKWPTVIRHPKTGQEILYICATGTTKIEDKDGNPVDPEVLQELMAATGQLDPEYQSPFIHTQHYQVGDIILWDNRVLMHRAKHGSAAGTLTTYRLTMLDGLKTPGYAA

Row | Structure (SMILES) | LC-HRMS of INDA formation [1] | LC-HRMS; glyoxylate derivatization with 2-nitrophenylhydrazine [2]
1 | CCCCCCCC(CC(=O)O)NCC(=O)O (racemic) [CADA, 3-[(carboxymethyl)amino]decanoic acid] | We reconstituted the activity of Rv0097 using the surrogate substrate CADA | –
2 | C[C@H](CC(=O)O)NCC(=O)O [CABA, (R)-3-((carboxymethyl)amino)butanoic acid] | – | Y96F ScoE mutant revealed that it was unable to synthesize INBA from CABA
